Experimental data taken from PMC4049391, “Cadmium exposure and sulfate limitation reveal differences in the transcriptional control of three sulfate transporter (Sultr1;2) genes in Brassica juncea” (BMC Plant Biology, 2014).

Target: T1, AtSultr2;1 (Arabidopsis thaliana, UniProt O04722)
T1 construct: gene SULTR2; full-length ORF from Arabidopsis root RNA in pESC-TRP (GAL10 promoter), expressed in Saccharomyces cerevisiae CP154-7A
T1 sequence (O04722 1-677): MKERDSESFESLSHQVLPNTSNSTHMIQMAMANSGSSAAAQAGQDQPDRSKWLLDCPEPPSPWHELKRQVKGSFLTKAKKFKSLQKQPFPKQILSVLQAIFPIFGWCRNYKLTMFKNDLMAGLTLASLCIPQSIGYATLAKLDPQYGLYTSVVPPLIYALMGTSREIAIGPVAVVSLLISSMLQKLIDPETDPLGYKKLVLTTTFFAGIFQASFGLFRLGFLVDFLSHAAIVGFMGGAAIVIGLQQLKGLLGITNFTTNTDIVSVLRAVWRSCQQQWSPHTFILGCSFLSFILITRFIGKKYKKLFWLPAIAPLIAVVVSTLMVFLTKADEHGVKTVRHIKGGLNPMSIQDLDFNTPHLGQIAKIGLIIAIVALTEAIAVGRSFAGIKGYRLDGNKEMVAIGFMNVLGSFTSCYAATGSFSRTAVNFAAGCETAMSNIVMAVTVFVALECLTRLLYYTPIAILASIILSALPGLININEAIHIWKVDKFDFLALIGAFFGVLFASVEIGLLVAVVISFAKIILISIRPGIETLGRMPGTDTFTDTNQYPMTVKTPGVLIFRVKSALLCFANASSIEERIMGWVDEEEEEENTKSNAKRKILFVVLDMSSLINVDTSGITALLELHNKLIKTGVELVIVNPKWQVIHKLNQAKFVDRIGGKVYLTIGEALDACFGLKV
Assay: growth rate of complemented yeast versus sulfate, Michaelis-Menten fit
Format: cell-based
Details: growth constant as estimate of apparent Km; sulfate 0-3 mM as sole sulfur source, 28°C; yeast CP154-7A

O=S(=O)(O)O [sulfate]
kG: Estimation of the growth constant (kG) for sulfate
